US20110300147A9, “Inhibiting tumor cell invasion, metastasis and angiogenesis” (The Scripps Research institute, priority 2005, published 2011)

What was measured:
HUVEC = assay: endothelial cell invasion assay under hypoxia; format: cell-based, human; conditions: hypoxic conditions
Description: Cell invasion and mobility assays. Cell migration and invasion assays were performed as described with modifications (Albini et al., 1987). Stock solutions (15 mg/ml) of Matrigel basement membrane matrix (Becton Dickinson, Bedford, Mass.) were stored at −80° C. in 100 μl aliquots. After thawing on ice, the stock was diluted 1:50 with cold serum-free culture media and immediately applied to each membrane insert (8 μm pore) that formed the upper chambers of the multi-well invasion assay plate. The Matrigel was incubated overnight in a sterile laminar tissue culture hood. The membranes were hydrated for 2 hours with 250 μl of serum-free medium and excess medium was removed by aspiration. Medium containing 10% FBS was added to the bottom of each well. A suspension of 10^5 cells in 150 μl of serum-free medium was added to the upper chamber and incubated for 12 hours at 37° C., 5% CO2. At the indicated times, the membrane inserts were removed from the plate and the non-invading cells were removed from the upper surface. Membrane associated cells were stained with 0.09% crystal violet for 30 minutes and washed twice with PBS. The invading cells were counted microscopically. […]
The effect of AEPI-1 on endothelial cell function was assessed in vitro in a matrigel endothelial cell tube formation assay. […]

4T1 breast cells = assay: 4T1 experimental lung metastasis model; format: in vivo, BALB/c mice; conditions: AEPI-1 100 μg i.p. daily for two weeks
Description: A lung metastasis model was induced experimentally by injecting a cell suspension of 4T1 breast cells (1×10^5) suspended in 0.1 ml serum free medium into the tail vein of six-week-old female BALB/c mice. The mice were treated with 100-μl intraperitoneal injections of either PBS alone (control group) or LEG-3 (100 μg/100 μl) daily for two weeks.
4T1 Lung Experimental Metastasis was generated by suspending 4T1 cells (1×10^5) in 0.1 ml serum-free medium and injecting these cells into the tail vein of mice under the anesthesia. Treatment involved 100 μl intraperitoneal injection of either saline alone (control group) or AEPI-1 (treatment group). The AEPI-1 treatment group was given 100 μg AEPI-1 in saline (100 ul) by intraperitoneal injection daily for two weeks. All mice were euthanized by CO2 and lungs were removed, weighted and fixed in the Bouin's solution. Lung metastases were counted by anatomy microscope.

CCOC(=O)C1OC1C(=O)N(CC(N)=O)NC(=O)[C@H](C)NC(=O)[C@H](C)NC(=O)OCc1ccccc1 (stereo partly drawn) [AEPI-1, Cbz-Ala-Ala-AzaAsn-(S,S)-EPCOOEt]
hypoxia induced endothelial cell invasion (HUVEC): inhibited
experimental lung metastasis (4T1 breast cells): inhibited experimental lung metastasis
